Patent US20240208950A1, “COMPOSITIONS AND METHODS FOR TREATMENT OF CERVICAL AND OVARIAN CANCER” (SOUTH DAKOTA BOARD OF REGENTS, priority 2021, published 2024)

How the values were obtained:
β-catenin in CaSki cells = assay: Western blot of β-catenin in nuclear and cytoplasmic extracts, CaSki; assay type: cell-based, human; settings: 15 μM, 24 hours
Description: In the Example shown at FIGS. 9A-9E, cells were subjected to treatment with 15 μM concentration of ORM-Br for 24 hours, nuclear extracts were prepared and western blot analysis were used to detect the protein levels of β-catenin. […] Western blots were reprobed with β-actin and Histone H3 antibodies as an internal control.
The nuclear and cytoplasmic lysates were prepared using respective buffers. The cell lysates (40 μg) were subjected to SDS-PAGE and blotted on PVDF membrane. The membranes were further blocked in 5% milk diluted in 1×TBST solution for 1 hour and incubated overnight in primary antibodies. The following day, the membranes were washed and incubated with secondary antibodies for 1 hour, washed again and developed on a UVP system using chemi-luminiscent reagents.
The EMT process in a cell is driven by growth factors or other signaling proteins such as Wnt/beta-catenin and extracellular matrix component that may stimulate cellular growth and migration. The effect of Br-ORM on β-catenin signaling was examined.
FIG. 15. Effect OF Br-ORM on β-catenin signaling and molecular docking of Br-ORM with β-catenin. Effect of Br-ORM on β-catenin distribution in cytoplasm and nucleus of CaSki and SiHa cells. […] Effect of Br-ORM on β-catenin localization in CaSki cells as determined by confocal microscopy (FIG. 15B(i)-(ii)). […]

SiHa cells = assay: Cell cycle analysis by flow cytometry, SiHa; assay type: cell-based, human; settings: 10 and 15 μM
Description: The effect of Br-ORM on cell cycle analysis was performed by flow cytometry as has described in the art. In brief, approximately 70% confluent cervical cancer cells were treated with Br-ORM (10 and 20 μM) for 24 hours. The cells were trypsinized and washed twice with ice-cold PBS (1×). The cell pellets were resuspended in 50 μL of ice cold PBS (1×) and 450 μL of cold methanol. The cells were washed twice with ice cold PBS (1×), suspended in 500 μL PBS, and incubated with 500 μL RNase (20 μg/mL final concentration) at 37° C. for 1 hour. The cells were chilled over ice for 10 minutes and stained with propidium iodide (50 μg/mL final concentration) for 1 hour and analyzed by flow cytometry (BD Accuri C6; Becton Dickinson, Mountain View, CA, USA). Data was analyzed by using Modfit software.
To examine the effect on cell cycle distribution, cervical cancer cells were treated with Br-ORM (10 and 15 μM) and analyzed by flow cytometry (FIG. 13F(i)-(ii)).

COc1ccc2c(c1)OC(C)(C)C(c1ccc(Br)cc1)C2c1ccc(OCCN2CCCC2)cc1 (stereo not drawn) [ORM-Br]
nuclear β-catenin expression (β-catenin in CaSki cells): decrease in expression of nuclear β-catenin | nuclear β-catenin expression (β-catenin in CaSki cells; listed as Br-ORM): inhibited nuclear β-catenin | cell cycle distribution (SiHa cells): arrested cell cycle progression of CaSki and SiHa cells at G1/S phase
